In patent US10150728B2, “Alkylene derivatives” (Shionogi & Co., Ltd., priority 2013, dated 2018):

Target: recombinant human ACC1 (Homo sapiens (Human), UniProt Q13085)
Assay: Measurement of inhibitory activity on human ACC1 (MALDI-TOF MS, acetyl CoA to malonyl CoA conversion)
Format: biochemical
Settings: not given
Description: Preparation 2: Preparation of Recombinant Human ACC1
After a cDNA encoding human ACC1 (1 amino acid residue to 2346 amino acid residues from the N-terminus) was cloned from human liver cDNA library (BioChain), human ACC1 gene containing myc-tag and His-tag sequence at 3′ terminus was inserted into pIEXBAC3 (Novagen). Recombinant baculovirus was generated using FlashBACGOLD system (Oxford Expression Technologies) according to the manufacturer's protocol. To express human ACC1, Sf-9 cells were infected with recombinant baculovirus. After infected cells were disrupted, the filtrated lysate was subjected to Ni-affinity chromatography and anion-exchange chromatography. The fractions containing human ACC1 protein were pooled as recombinant human ACC1 solution.
The Measurement of Inhibitory Activity on Human ACC1 and the ACC2
Recombinant human ACC1 and recombinant human ACC2, which were prepared by the method mentioned above, were preincubated with assay buffer solution (50 mM HEPES-KOH (pH 7.4), 10 mM magnesium chloride, 6-10 mM potassium citrate, 4 mM reduced form of glutathione, 1.5 mg/ml bovine serum albumin) for one hour. Then, 0.2 μL of each this invention compound solution (in DMSO) were dispensed to 384-well microplate, 5 μL of the preincubated enzyme solution and 5 μL of substrate solution (50 mM HEPES-KOH (pH 7.4), 1 mM ATP, 0.8 mM acetyl CoA and 25-50 mM potassium bicarbonate) were added to microplate. After centrifugation and shaking, the reaction mixtures were incubated in a humidified box at room temperature for 1 to 3 hours. After the incubation, the enzyme reactions were stopped by the addition of EDTA. Then, after the samples were cocrystallized with CHCA (α-cyano-4-hydroxy cinnamic acid) matrices on MALDI target plate, by using the matrix assist laser […] time-of-flight mass spectrometer (MALDI-TOF MS), samples were measured in reflector negative mode. Deprotonated ions of acetyl CoA (AcCoA) of substrate and malonyl CoA (MalCoA) of the reaction product were detected, then, the conversion rates of acetyl CoA to malonyl CoA was calculated by the intensity of [MalCoA-H]−/(Intensity of [MalCoA-H]−+Intensity of [AcCoA-H]−) using each signal strength. […] In addition, potassium citrate concentrations in assay buffer solution, potassium hydrogen carbonate concentrations in substrate solution and incubation time were adjusted by each lot of enzyme.

Row | Structure (SMILES) | IC50 [nM]
1 | CC(=O)N[C@@H](C)CC(=O)c1ccc(Oc2ccc(OCC3CC3)cc2Cl)cc1 [Compound I-001] | > 100000
2 | CCCc1ccc(Oc2ccc(OC[C@H](C)NC(=O)OC(C)(C)C)cn2)c(Cl)c1 [Compound I-003] | > 100000
3 | CC(=O)N[C@@H](C)COc1cnc(Oc2ccc3nc(C(C)C)oc3c2Cl)cn1 [Compound I-037] | > 100000
4 | CCn1c(=O)sc2c(F)c(Oc3cnc(O[C@@H](C)[C@H](C)NC(C)=O)cn3)ccc21 [Compound I-058] | > 100000
5 | CC(=O)N[C@@H](C)COc1cnc(Oc2ccc3nc(C(C)C)ncc3c2Cl)cn1 [Compound I-081] | > 100000
6 | CC(=O)N[C@@H](C)COc1cnc(Oc2ccc(C(=O)NC3CCOCC3)c(F)c2F)cn1 [Compound I-091] | > 100000
7 | CC(=O)N[C@H]1CCC[C@@H]1Oc1ccc(Oc2ccc3nc(C(C)C)sc3c2Cl)cn1 [Compound I-106] | > 100000

Second part, the compound after the results:

Row | IC50 [nM] | Structure (SMILES)
8 | > 100000 | CC(=O)N[C@@H](C)CC(=O)c1cnc(Oc2ccc(OCC3CC3)cc2Cl)s1 [Compound I-002]
9 | > 100000 | CC(=O)N[C@@H](C)CO[C@H]1CC[C@H](Oc2ccc3nn(C(C)C)cc3c2Cl)CC1 [Compound I-067]
10 | > 100000 | CC(=O)N[C@@H](C)CO[C@H]1CC[C@H](Oc2ncc3cc(Br)ccc3n2)CC1 [Compound I-079]
11 | > 100000 | CC(=O)N[C@@H](C)CO[C@H]1C[C@H](COc2ccc3nc(C(C)(F)F)sc3c2Cl)C1 [Compound I-098]
12 | > 100000 | CCOc1nc2ccc(OC[C@H]3C[C@H](OC[C@H](C)NC(C)=O)C3)c(C#N)c2s1 [Compound I-103]

Target: recombinant human ACC2 (Homo sapiens (Human), UniProt O00763)
Sequence (O00763 27-2458): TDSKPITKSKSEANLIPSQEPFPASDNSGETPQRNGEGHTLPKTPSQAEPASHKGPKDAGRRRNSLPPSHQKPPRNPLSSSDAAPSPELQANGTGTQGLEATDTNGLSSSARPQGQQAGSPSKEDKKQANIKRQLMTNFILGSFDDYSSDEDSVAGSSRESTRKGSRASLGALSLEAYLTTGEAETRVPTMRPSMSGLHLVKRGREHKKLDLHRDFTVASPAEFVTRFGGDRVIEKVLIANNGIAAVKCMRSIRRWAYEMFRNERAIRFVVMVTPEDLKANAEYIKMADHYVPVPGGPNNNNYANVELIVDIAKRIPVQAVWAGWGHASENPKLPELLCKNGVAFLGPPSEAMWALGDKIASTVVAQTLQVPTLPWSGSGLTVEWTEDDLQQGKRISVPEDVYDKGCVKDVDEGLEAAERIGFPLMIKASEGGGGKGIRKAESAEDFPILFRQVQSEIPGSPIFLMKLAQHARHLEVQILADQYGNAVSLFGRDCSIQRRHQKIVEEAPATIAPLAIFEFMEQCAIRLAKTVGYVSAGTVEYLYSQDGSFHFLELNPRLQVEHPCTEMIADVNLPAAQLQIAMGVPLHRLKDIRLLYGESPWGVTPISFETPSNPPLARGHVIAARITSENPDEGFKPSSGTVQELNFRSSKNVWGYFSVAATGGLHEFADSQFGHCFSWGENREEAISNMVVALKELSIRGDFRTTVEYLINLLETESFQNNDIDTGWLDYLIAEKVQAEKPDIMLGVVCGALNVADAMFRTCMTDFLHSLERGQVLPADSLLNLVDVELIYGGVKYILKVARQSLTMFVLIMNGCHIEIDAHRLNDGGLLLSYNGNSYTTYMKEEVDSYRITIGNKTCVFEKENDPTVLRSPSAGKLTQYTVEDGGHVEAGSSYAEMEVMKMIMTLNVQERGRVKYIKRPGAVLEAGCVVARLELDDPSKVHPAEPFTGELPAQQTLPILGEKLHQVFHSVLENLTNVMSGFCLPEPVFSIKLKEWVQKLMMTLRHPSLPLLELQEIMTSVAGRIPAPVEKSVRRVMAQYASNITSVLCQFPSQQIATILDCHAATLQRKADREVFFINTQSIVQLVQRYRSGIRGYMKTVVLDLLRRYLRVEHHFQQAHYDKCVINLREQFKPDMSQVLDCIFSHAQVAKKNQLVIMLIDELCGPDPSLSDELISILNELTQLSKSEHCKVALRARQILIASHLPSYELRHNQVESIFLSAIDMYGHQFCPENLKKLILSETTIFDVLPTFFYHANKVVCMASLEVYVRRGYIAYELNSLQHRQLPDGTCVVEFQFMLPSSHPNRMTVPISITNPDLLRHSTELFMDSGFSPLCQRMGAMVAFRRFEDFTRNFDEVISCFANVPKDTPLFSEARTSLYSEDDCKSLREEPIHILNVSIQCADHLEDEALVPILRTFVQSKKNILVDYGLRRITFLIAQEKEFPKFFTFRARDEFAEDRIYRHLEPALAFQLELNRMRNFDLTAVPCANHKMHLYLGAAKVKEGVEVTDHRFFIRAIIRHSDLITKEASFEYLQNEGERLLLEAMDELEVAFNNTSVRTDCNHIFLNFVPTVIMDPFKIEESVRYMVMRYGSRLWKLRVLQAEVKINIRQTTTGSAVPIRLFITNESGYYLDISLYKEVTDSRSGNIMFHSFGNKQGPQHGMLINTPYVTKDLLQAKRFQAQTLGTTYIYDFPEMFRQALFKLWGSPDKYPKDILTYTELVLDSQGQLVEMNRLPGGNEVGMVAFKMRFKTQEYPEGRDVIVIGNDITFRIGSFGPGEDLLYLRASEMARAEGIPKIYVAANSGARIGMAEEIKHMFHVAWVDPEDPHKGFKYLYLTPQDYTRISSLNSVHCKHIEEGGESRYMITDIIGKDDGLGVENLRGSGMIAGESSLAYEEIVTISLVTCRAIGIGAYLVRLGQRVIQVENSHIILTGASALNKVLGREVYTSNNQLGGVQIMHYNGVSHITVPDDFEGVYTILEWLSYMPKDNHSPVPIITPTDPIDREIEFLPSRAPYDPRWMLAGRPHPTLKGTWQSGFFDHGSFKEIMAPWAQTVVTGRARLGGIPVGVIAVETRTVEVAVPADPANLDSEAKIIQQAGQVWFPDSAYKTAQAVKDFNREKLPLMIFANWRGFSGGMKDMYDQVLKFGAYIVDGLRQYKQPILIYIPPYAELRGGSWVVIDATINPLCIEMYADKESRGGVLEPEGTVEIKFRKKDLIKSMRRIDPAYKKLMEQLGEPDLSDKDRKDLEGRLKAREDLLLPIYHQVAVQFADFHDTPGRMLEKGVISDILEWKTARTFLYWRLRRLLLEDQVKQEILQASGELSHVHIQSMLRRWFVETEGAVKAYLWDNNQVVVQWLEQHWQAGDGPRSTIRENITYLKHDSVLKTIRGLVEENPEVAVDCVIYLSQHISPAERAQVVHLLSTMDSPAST
Assay: Measurement of inhibitory activity on human ACC2 (MALDI-TOF MS, acetyl CoA to malonyl CoA conversion)
Format: biochemical
Settings: Table 154
Summary of the method: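 His-tagged human ACC2 (residues 27–2458) from baculovirus-infected Sf-9 cells was preincubated 1 h in pH 7.4 HEPES-KOH buffer with MgCl2, 6-10 mM potassium citrate, glutathione and BSA. Substrate solution held 1 mM ATP, 0.8 mM acetyl CoA and 25-50 mM bicarbonate. After 1–3 h at room temperature, malonyl CoA/(malonyl+acetyl CoA) was read by negative-mode MALDI-TOF MS; citrate, bicarbonate and time varied by enzyme lot.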

Row | Structure (SMILES) | IC50 [nM]
13 | CC(=O)N[C@@H](C)CC(=O)c1ccc(Oc2ccc(OCC3CC3)cc2Cl)cc1 [Compound I-001] | 71
14 | CC(=O)N[C@@H](C)COc1cnc(Oc2ccc3nc(C(C)C)oc3c2Cl)cn1 [Compound I-037] | 167
15 | CC(=O)N[C@@H](C)COc1cnc(Oc2ccc3nc(C(C)C)ncc3c2Cl)cn1 [Compound I-081] | 344
16 | CC(=O)N[C@H]1CCC[C@@H]1Oc1ccc(Oc2ccc3nc(C(C)C)sc3c2Cl)cn1 [Compound I-106] | 91

Further lines, results first:

Row | IC50 [nM] | Structure (SMILES)
17 | 770 | CC(=O)N[C@@H](C)CC(=O)c1cnc(Oc2ccc(OCC3CC3)cc2Cl)s1 [Compound I-002]
18 | 933 | CC(=O)N[C@@H](C)CO[C@H]1CC[C@H](Oc2ccc3nn(C(C)C)cc3c2Cl)CC1 [Compound I-067]
19 | 1760 | CC(=O)N[C@@H](C)CO[C@H]1CC[C@H](Oc2ncc3cc(Br)ccc3n2)CC1 [Compound I-079]
20 | 792 | CC(=O)N[C@@H](C)CO[C@H]1C[C@H](COc2ccc3nc(C(C)(F)F)sc3c2Cl)C1 [Compound I-098]
21 | 4500 | CCOc1nc2ccc(OC[C@H]3C[C@H](OC[C@H](C)NC(C)=O)C3)c(C#N)c2s1 [Compound I-103]

Same assay, conditions: Tables 155-159

Row | Structure (SMILES) | IC50 [nM]
22 | CC(=O)N[C@@H](C)CO[C@H]1CC[C@H](Oc2nc3cnc(OC4CC4)c(Cl)c3n2C)CC1 [Compound I-705] | 9
23 | CC(=O)N[C@@H](C)CO[C@H]1CC[C@H](Oc2nc3c(Cl)nc(OC4CC4)c(Cl)c3n2C)CC1 [Compound I-710] | 6
24 | CC(=O)N[C@@H](C)CO[C@H]1CC[C@H](Oc2nc3c(Cl)nc(OC4CC4)c(F)c3n2C)CC1 [Compound I-711] | 7
25 | CC(=O)N[C@@H](C)CO[C@H]1CC[C@H](Oc2nc3c(F)cc(OC4CC(F)(F)C4)c(F)c3n2C)CC1 [Compound I-713] | 3
26 | C[C@@H](CO[C@H]1CC[C@H](Oc2nc3c(F)cc(OCC(F)F)c(F)c3n2C)CC1)NC(=O)CC#N [Compound I-714] | 44
27 | CC(=O)N[C@@H](C)[C@@H](C)O[C@H]1CC[C@H](Oc2nc3c(F)cc(OCC(F)F)c(F)c3n2C)CC1 [Compound I-716] | 170
28 | CC(=O)N[C@@H](C)CO[C@H]1CC[C@H](Oc2nc3c(F)c(C)c(OCC(F)F)c(F)c3n2C)CC1 [Compound I-717] | 15
29 | CC(=O)N[C@@H](C)CO[C@H]1CC[C@H](Oc2nc3c(C)nc(OC4CC4)c(Cl)c3n2C)CC1 [Compound I-726] | 9
30 | CC(=O)N[C@@H](C)CO[C@H]1CC[C@H](Oc2nc3c(Cl)nc(C4CC4)c(Cl)c3n2C)CC1 [Compound I-727] | 194
31 | CC(=O)N[C@@H](CF)CO[C@H]1CC[C@H](Oc2nc3cnc(OCC(F)F)c(Cl)c3n2C)CC1 [Compound I-728] | 8
32 | C[C@@H](CO[C@H]1CC[C@H](Oc2nc3c(F)cc(OC4CC4)c(F)c3n2C)CC1)NC(=O)CC#N [Compound I-729] | 4
33 | CC(=O)N[C@@H](CC#N)CO[C@H]1CC[C@H](Oc2nc3cnc(OCC(F)F)c(Cl)c3n2C)CC1 [Compound I-730] | 910
34 | CC(=O)N[C@@H](C)[C@@H](C)O[C@H]1CC[C@H](Oc2nc3cnc(OCC(F)F)c(Cl)c3n2C)CC1 [Compound I-732] | 260
35 | CC(=O)N[C@@H](C)CO[C@H]1CC[C@H](Oc2nc3c(F)c(Cl)c(OCC(F)F)c(F)c3n2C)CC1 [Compound I-733] | 9
36 | CC(=O)N[C@@H](C)CO[C@H]1CC[C@H](Oc2nc3c(F)cc(OC4CC4)cc3n2C)CC1 [Compound I-734] | 4
37 | CC(=O)N[C@@H](C)CO[C@H]1CC[C@H](Oc2nc3c(Br)cc(OCc4ccccc4)cc3n2C)CC1 [Compound I-738] | 35
38 | CC(=O)N[C@@H](C)CO[C@H]1CC[C@H](Oc2nc3c(F)cc(OCC(F)F)c(F)c3n2C)CC1 [Compound I-741] | 7
39 | CC(=O)N[C@@H](C)CO[C@H]1CC[C@H](Oc2nc3c(Cl)cc(OCC(F)F)c(F)c3n2C)CC1 [Compound I-742] | 13
40 | CC(=O)N[C@@H](C)CO[C@H]1CC[C@H](Nc2nc3c(F)cc(OCC(F)F)c(F)c3n2C)CC1 [Compound I-744] | 740
41 | CC(=O)N[C@@H](C)CC(O)[C@@H]1CC[C@@H](Oc2nc3c(F)cc(OCC(F)F)c(F)c3n2C)CO1 (some centres unmarked) [Compound I-745] | 490
42 | CC(=O)N[C@@H](C)[C@@H](C)O[C@H]1CC[C@H](Oc2nc3cnc(OC4CC4)c(F)c3n2C)CC1 [Compound I-746] | 350
43 | CC(=O)N[C@@H](C)CC[C@H]1OC[C@H](Oc2nc3c(F)cc(OCC(F)F)c(Cl)c3n2C)CO1 [Compound I-748] | 5

The next lines start with the values.

Row | IC50 [nM] | Structure (SMILES)
44 | 30 | CC(=O)N[C@@H](C)CO[C@H]1CC[C@H](Oc2nc3c(C#N)c(F)c(OCC(F)F)c(F)c3n2C)CO1 [Compound I-703]
45 | 48 | CC(=O)N[C@@H](C)CO[C@H]1CC[C@H](Oc2nc3c(Cl)cc(OCC(F)F)cc3n2C)CC1 [Compound I-706]
46 | 84 | CC(=O)N[C@@H](C)CO[C@H]1CC[C@H](Oc2nc3c(F)cc(OCC(F)F)cc3n2C)CC1 [Compound I-707]
47 | 5 | CC(=O)N[C@@H](C)CO[C@H]1CC[C@H](Oc2nc3cnc(OCC4CC4(F)F)c(Cl)c3n2C)CC1 (some centres unmarked) [Compound I-708]
48 | 133 | CC(=O)N[C@@H](C)CO[C@H]1CC[C@H](Oc2nc3c(C)cc(OCC(F)F)cc3n2C)CC1 [Compound I-709]
49 | 775 | CCOc1ccc2nc(O[C@H]3CC[C@H](OC[C@H](C)NC(C)=O)CC3)n(C)c2c1C#N [Compound I-720]
50 | 9 | CC(=O)N[C@@H](C)CO[C@H]1CC[C@H](Oc2nc3cnc(OCC(F)F)c(Cl)c3n2C)CC1 [Compound I-722]
51 | 41 | CCOc1cc(F)c2nc(O[C@H]3CC[C@H](OC[C@H](C)NC(C)=O)CC3)n(C)c2c1 [Compound I-723]
52 | 9 | CC(=O)N[C@@H](C)CO[C@H]1CC[C@H](Oc2nc3cnc(OC[C@@H](C)F)c(Cl)c3n2C)CC1 [Compound I-724]
53 | 101 | CCOc1cc2c(nc(O[C@H]3CC[C@H](OC[C@H](C)NC(C)=O)CC3)n2C)c(Cl)c1Cl [Compound I-725]
54 | 677 | CCOc1ccc2nc(O[C@H]3CC[C@H](OC[C@H](C)NC(C)=O)CC3)n(C)c2c1C1CC1 [Compound I-735]
55 | 87 | CC(=O)N[C@@H](C)CO[C@H]1CC[C@H](Oc2nc3cnc(OC(F)F)c(Cl)c3n2C)CC1 [Compound I-736]
56 | 33 | CC(=O)N[C@@H](C)CO[C@H]1CC[C@H](Oc2nc3c(F)cc(OCC4CC4)cc3n2C)CC1 [Compound I-737]
57 | 7 | CCOc1cc(Cl)c2nc(O[C@H]3CC[C@H](OC[C@H](C)NC(C)=O)CC3)n(C)c2c1Cl [Compound I-739]
58 | 3 | CCOc1cc(F)c2nc(O[C@H]3CC[C@H](OC[C@H](C)NC(C)=O)CC3)n(C)c2c1Cl [Compound I-740]
59 | 44 | CC(=O)N[C@@H](C)CO[C@H]1CC[C@H](Oc2nc3c(F)c(C#N)c(OCC(F)F)c(F)c3n2C)CC1 [Compound I-747]
